Measurements as given in patent publication US20150004110A1, “NOVEL ANTI-AGING AND DEPIGMENTING COSMETIC COMPOSITIONS” (DIVERCHIM, priority 2011, published 2015).

How the values were obtained:
[1] = system: HSPB1, heat shock protein beta-1; test: RT-qPCR expression of HSPB1 in keratinocytes; format: cell-based, human; settings: 10 μM
Experimental: The expression of the specific markers was evaluated by RT-qPCR (reverse transcription quantitative polymerase chain reaction) on messenger RNAs extracted from the cell lawns from each treatment. The transcriptomic profile contains 64 genes selected for their importance in keratinocyte differentiation. The PCR reactions (polymerase chain reactions) were carried out by quantitative PCR with the “Light Cycler” system (Roche Molecular System Inc.) according to the procedures recommended by the supplier. Normal human epidermal keratinocytes were incubated in the presence of compound 1 or a reference with calcium chloride. The expression of the specific markers was evaluated by RT-qPCR on the messenger RNAs extracted from the cell lawns from each treatment.

PPARγ (h) [2] = target: T1, PPARγ (h) (Homo sapiens, UniProt P37231); test: PPARγ agonist effect, coactivator Alpha screen; format: biochemical
T1 construct: Cerep (contract laboratory that ran the assay)
T1 sequence (P37231 1-505): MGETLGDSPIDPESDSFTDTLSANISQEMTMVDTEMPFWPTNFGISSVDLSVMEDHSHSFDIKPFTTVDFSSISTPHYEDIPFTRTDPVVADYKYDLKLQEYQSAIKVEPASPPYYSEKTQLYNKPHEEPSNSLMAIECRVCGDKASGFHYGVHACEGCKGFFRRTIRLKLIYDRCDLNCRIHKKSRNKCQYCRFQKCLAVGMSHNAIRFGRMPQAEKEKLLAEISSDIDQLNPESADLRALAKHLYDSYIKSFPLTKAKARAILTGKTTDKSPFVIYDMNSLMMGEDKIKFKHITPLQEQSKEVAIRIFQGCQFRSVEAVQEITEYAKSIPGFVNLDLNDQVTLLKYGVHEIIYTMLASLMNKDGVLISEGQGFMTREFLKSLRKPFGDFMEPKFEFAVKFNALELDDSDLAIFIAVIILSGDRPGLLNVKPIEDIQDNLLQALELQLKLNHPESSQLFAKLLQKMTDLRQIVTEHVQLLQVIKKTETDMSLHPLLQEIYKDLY
Experimental: (§1) The agonist or antagonist activity of compound 1 on the PPAR receptors was tested by fluorescence techniques. • Material and Methods
(§2) The results are expressed as: • percentage of control specific agonist response (measured specific response/control specific agonist response)×100) and • percentage inhibition of the control specific agonist response (100−((measured specific response)/control specific agonist response)×100)) obtained in the presence of compound 1.
(§3) The EC50 values (concentration at which the maximum specific response is 50%) and the IC50 values (concentration at which the maximum control specific agonist response is inhibited by 50%) are determined by non-linear regression analysis of the concentration-response curves with a mean replicated value using adjustment of Hill's equation

PPARα (h) = target: T2, PPARα (h) (Homo sapiens, UniProt Q07869); test: PPARα agonist effect, coactivator Alpha screen; format: biochemical
T2 sequence (Q07869 1-468): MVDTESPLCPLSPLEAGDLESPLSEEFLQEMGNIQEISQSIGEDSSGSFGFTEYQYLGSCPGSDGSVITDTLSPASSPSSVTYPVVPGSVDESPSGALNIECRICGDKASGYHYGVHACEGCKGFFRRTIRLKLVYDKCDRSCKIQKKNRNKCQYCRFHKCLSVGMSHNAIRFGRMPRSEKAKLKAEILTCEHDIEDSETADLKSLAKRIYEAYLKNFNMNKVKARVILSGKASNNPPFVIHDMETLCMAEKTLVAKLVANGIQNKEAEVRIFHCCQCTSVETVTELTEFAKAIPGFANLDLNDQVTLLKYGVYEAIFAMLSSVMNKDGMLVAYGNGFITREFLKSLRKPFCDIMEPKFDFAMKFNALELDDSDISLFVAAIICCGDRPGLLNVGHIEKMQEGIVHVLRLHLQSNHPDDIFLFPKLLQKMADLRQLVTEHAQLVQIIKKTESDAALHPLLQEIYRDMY
Experimental: as §1, §2, §3

filaggrin = test: In situ immunolabelling of filaggrin in keratinocytes; format: cell-based; settings: normal human epidermal keratinocytes
Text: Transglutaminase K, TGK, and filaggrin are two protein markers of epidermal differentiation involved in arrangement of the keratin filaments and formation of the envelope of the stratum corneum.

PPARγ (h) [3] = target: T1, PPARγ (h); test: PPARγ antagonist effect, coactivator Alpha screen; format: biochemical
Experimental: as §1, §2, §3
For the antagonists, the apparent dissociation constants (KB) were calculated using the modified Cheng-Prusoff equation

PPARγ (h) [4] = target: T1, PPARγ (h); test: PPARγ competitive radioligand binding assay (Cerep)
Experimental: The affinity of compound 1 for the PPAR receptors (α and γ) was tested by in vitro binding assays (tests carried out by the company Cerep).
This is a nuclear receptor competitive binding assay, between a radiolabelled ligand and the test molecule (here compound 1).
The principle of the technique consists of measuring the displacement of the radioactive ligand bound to the receptor by the test molecule. • Material and Methods
The specific binding of the ligand is defined by the difference between total binding and non-specific binding determined in the presence of an excess of unlabelled ligand.
The results are expressed as: • percentage of control specific binding ((measured specific binding/control specific binding)×100)) • percentage of inhibition of control specific binding ((100−(measured specific binding/control specific binding)) obtained in the presence of compound 1.
The values of IC50 (concentration at which the maximum control specific binding is inhibited by 50%), and the Hill coefficient (nH) are determined by non-linear regression analysis of the curves of competition with a mean replicated value using adjustment of Hill's equation
The inhibition constant (Ki) was calculated using the Cheng-Prusoff equation

In the case of Oc1ccccc1CCOc1ccc(F)cc1 [Compound 1, 2-[2-(4-fluoro-phenoxy)-ethyl]-phenol], the “Expression of the stress protein HSPB1” value [1] is reported as “inhibition of expression”, the “% Control agonist response” value (PPARγ (h) [2]; 10^−5 M) is reported as 0% and the “% Control agonist response” value (PPARγ (h) [2]; 10^−6 M) is reported as 0%. The “% Control agonist response” value (PPARγ (h) [2]; 10^−7 M) was 0%, the “PPARγ agonist activity (conclusion in words)” value (PPARγ (h) [2]; 10^−7 to 10^−5 M) was “not an agonist” and the “% Control agonist response” value (PPARα (h); 10^−5 M) was 2%. The “% Control agonist response” value (PPARα (h); 10^−6 M) was 0%, the “% Control agonist response” value (PPARα (h); 10^−7 M) was −1% and the “PPARα agonist activity (conclusion in words)” value (PPARα (h); 10^−7 to 10^−5 M) was “not an agonist”. For the same compound, the “Protein expression of filaggrin” value (filaggrin) was “concentration-dependent stimulation of protein expression”, the inhibition at 10 µM (PPARγ (h) [3]; 10^−5 M, read-out: % Inhibition of control agonist response) was 0% and the inhibition at 1 µM (PPARγ (h) [3]; 10^−6 M, read-out: % Inhibition of control agonist response) was 0%. The inhibition at 0.1 µM (PPARγ (h) [3]; 10^−7 M, read-out: % Inhibition of control agonist response) was 3%, the “PPARγ antagonist activity (conclusion in words)” value (PPARγ (h) [3]; 10^−7 to 10^−5 M) was “not an antagonist” and the “Interpretation of the 49% inhibition of PPARγ specific binding” value (PPARγ (h) [4]; 10^−5 M) was “slight to moderate effect”. The inhibition at 10 µM (PPARγ (h) [4]; 10^−5 M, agonist radioligand, read-out: % Inhibition of control specific binding) was 49%, the inhibition at 1 µM (PPARγ (h) [4]; 10^−6 M, agonist radioligand, read-out: % Inhibition of control specific binding) was 1% and the inhibition at 0.1 µM (PPARγ (h) [4]; 10^−7 M, agonist radioligand, read-out: % Inhibition of control specific binding) was 0%. For the same compound, the “Activity with respect to the PPARγ receptor (binding, conclusion in words)” value (PPARγ (h) [4]; 10^−7 to 10^−5 M) was “no activity”.
